Measurements from patent publication US9018208B2, “Heterocycles as potassium channel modulators” (Icagen Inc., priority 2007, dated 2015).
Like-named read-outs stand apart in the source and are kept apart here.

Tested on: SH-SY5Y M-currents (KCNQ2, KCNQ3 and KCNQ5)
Assay: SH-SY5Y native cell line FLIPR assay (voltage-sensitive dye DiBAC)
Format: cell-based, mouse neuroblastoma, rat glioma hybrid cell line
Conditions: SH-SY5Y native cell line, read-out: SH-SY5Y EC50
Description: SH-SY5Y cells, a mouse neuroblastoma, rat glioma hybrid cell line, functionally express M-currents (Robbins et al., J. Physiol. 451: 159-85 (1992). SH-SY5Y M-currents are likely comprised, at least in part, of KCNQ2, KCNQ3 and KCNQ5, since these genes are reportedly robustly expressed in differentiated SH-SY5Y cells (Selyanko et al., J. Neurosci. 19(18): 7742-56 (1999); Schroeder et al., J. Biol. Chem. 275(31): 24089-95 (2000)) and KCNQ3 dominant-negative constructs reduce M-current density in these cells (Selyanko et al., J. Neurosci. 22(5): RC212 (2002).
SH-SY5Y were maintained in DMEM (high glucose) supplemented with 10% fetal bovine serum, 0.05 mM pyridoxine, 0.1 mM hypoxanthine, 400 nM aminopterin, […], 50 μgml^−1 gentamycin and 10 mM HEPES, in an incubator at 37° C. with a humidified atmosphere of 5% CO2. Cells were plated in 96 well plates differentiated by addition of 10 μM PGE1 and 50 μM isomethylbutylxanthine to the growth media prior to study.
Differentiated SH-SY5Y cells were loaded with voltage-sensitive dye by incubation in Earls Balanced Salt Solution (EBSS) containing […] DiBAC for 1 h. Following loading, drug solution containing […] DiBAC was added to each well. Changes in fluorescence were measured every 30 s for 25 min. The maximum change in fluorescence was measured and expressed as a percentage of the maximum response obtained in the presence of a positive control agent.

Compound	EC50 (FLIPR assay, Table 2) [nM]	other results
CC(C)CCc1c(NC(=O)CC2(C)CCCC2)nc2ccc(C(F)(F)F)cn12 [Compound 45, N-(3-isopentyl-6-(trifluoromethyl)imidazo[1,2-a]pyridin-2-yl)-2-(1-methylcyclopentyl)acetamide]		EC50 (FLIPR assay, Table 1): < 500 nM
O=C(CCC(F)(F)F)Nc1nc2cc(C(F)(F)F)ccn2c1-c1ccccc1 [Compound 105, 4,4,4-trifluoro-N-(3-phenyl-7-(trifluoromethyl)imidazo[1,2-a]pyridin-2-yl)butanamide]	3000 to 10000	
2-(3-chlorophenyl)-N-(6-fluoro-3-(4-(trifluoromethoxy)phenyl)imidazo yl)acetamide [Compound 239]	< 500	
O=C(Cc1ccc(F)cc1)Nc1nc2ccccn2c1-c1cc(C(F)(F)F)ccn1 [Compound 403, 2-(4-fluorophenyl)-N-(3-(4-(trifluoromethyl)pyridin-2-yl)imidazo[1,2-a]pyridin-2-yl)acetamide]		EC50 (FLIPR assay (Table 3)): < 500 nM
CC(C)(C)CC(=O)Nc1nc2ccc(F)cn2c1-c1ncccn1 [Compound 362, N-(6-fluoro-3-(pyrimidin-2-yl)imidazo[1,2-a]pyridin-2-yl)-3,3-dimethylbutanamide]		EC50 (FLIPR assay (Table 3)): 3000 to 10000 nM
CC(C)(C)CC(=O)Nc1nc2ccccn2c1-c1cscn1 [Compound 414, 3,3-dimethyl-N-(3-(thiazol-4-yl)imidazo[1,2-a]pyridin-2-yl)butanamide]		EC50 (FLIPR assay (Table 3)): 3000 to 10000 nM
CC(Oc1ccccc1)C(=O)Nc1nc2ccc(F)cn2c1-c1ccc(OC(F)(F)F)cc1 (centres unmarked) [Compound 232, N-(6-fluoro-3-(4-(trifluoromethoxy)phenyl)imidazo[1,2-a]pyridin-2-yl)-2-phenoxypropanamide]	3000 to 10000	
Cc1cccc2nc(NC(=O)CC(C)(C)C)c(-c3nc4ccccc4s3)n12 [Compound 392, N-(3-(benzo[d]thiazol-2-yl)-5-methylimidazo[1,2-a]pyridin-2-yl)-3,3-dimethylbutanamide]		EC50 (FLIPR assay (Table 3)): 3000 to 10000 nM
O=C(CC1CCOCC1)Nc1nc2ccc(F)cn2c1-c1ccc(OC(F)(F)F)cc1 [Compound 251, N-(6-fluoro-3-(4-(trifluoromethoxy)phenyl)imidazo[1,2-a]pyridin-2-yl)-2-(tetrahydro-2H-pyran-4-yl)acetamide]	500 to 3000	
O=C(Cc1ccc(F)cc1)Nc1nc2ccccn2c1-c1ccc(OC(F)(F)F)cc1 [Compound 205, 2-(4-fluorophenyl)-N-(3-(4-(trifluoromethoxy)phenyl)imidazo[1,2-a]pyridin-2-yl)acetamide]	< 500	
O=C(COc1ccccc1)Nc1nc2ccc(F)cn2c1-c1ccc(OC(F)(F)F)cc1 [Compound 231, N-(6-fluoro-3-(4-(trifluoromethoxy)phenyl)imidazo[1,2-a]pyridin-2-yl)-2-phenoxyacetamide]	3000 to 10000	
O=C(CC1CCCC1)Nc1nc2ccc(F)cn2c1-c1cccc(C(F)(F)F)c1 [Compound 268, 2-cyclopentyl-N-(6-fluoro-3-(3-(trifluoromethyl)phenyl)imidazo[1,2-a]pyridin-2-yl)acetamide]	< 500	
CC1(CC(=O)Nc2nc3ccc(C(F)(F)F)cn3c2CC2CCCCC2)CCCC1 [Compound 46, N-(3-(cyclohexylmethyl)-6-(trifluoromethyl)imidazo[1,2-a]pyridin-2-yl)-2-(1-methylcyclopentyl)acetamide]		EC50 (FLIPR assay, Table 1): < 500 nM
O=C(CC(F)(F)F)Nc1nc2ccc(F)cn2c1-c1cccc(OC(F)(F)F)c1 [Compound 263, 3,3,3-trifluoro-N-(6-fluoro-3-(3-(trifluoromethoxy)phenyl)imidazo[1,2-a]pyridin-2-yl)propanamide]	500 to 3000	
Cc1ccc2nc(NC(=O)CC(C)C(F)(F)F)c(-c3nccs3)n2n1 (centres unmarked) [Compound 388, 4,4,4-trifluoro-3-methyl-N-(6-methyl-3-(thiazol-2-yl)imidazo[1,2-b]pyridazin-2-yl)butan amide]		EC50 (FLIPR assay (Table 3)): 3000 to 10000 nM
O=C(Cc1ccc(Cl)cc1)Nc1nc2ccc(F)cn2c1-c1ccc(F)cc1 [Compound 145, 2-(4-chlorophenyl)-N-(6-fluoro-3-(4-fluorophenyl)imidazo[1,2-a]pyridin-2-yl)acetamide]	500 to 3000	
O=C(Cc1ccc(F)cc1)Nc1nc2ccc(C(F)(F)F)cn2c1C1CCCC1 [Compound 50, N-(3-cyclopentyl-6-(trifluoromethyl)imidazo[1,2-a]pyridin-2-yl)-2-(4-fluorophenyl)acetamide]		EC50 (FLIPR assay, Table 1): < 500 nM
O=C(CC1CCCC1)Nc1nc2ccc(F)cn2c1-c1nc2ccccc2s1 [Compound 380, N-(3-(benzo[d]thiazol-2-yl)-6-fluoroimidazo[1,2-a]pyridin-2-yl)-2-cyclopentylacetamide]		EC50 (FLIPR assay (Table 3)): 500 to 3000 nM
CC(C)C(C)C(=O)Nc1nc2ccc(F)cn2c1-c1ccc(OC(F)(F)F)cc1 (centres unmarked) [Compound 249, N-(6-fluoro-3-(4-(trifluoromethoxy)phenyl)imidazo[1,2-a]pyridin-2-yl)-2,3-dimethylbutanamide]	< 500	
CC(C)(C)CC(=O)Nc1nc2ccc(F)cn2c1Cc1ccc(F)cc1 [Compound 16, N-(6-fluoro-3-(4-fluorobenzyl)imidazo[1,2-a]pyridin-2-yl)-3,3-dimethylbutanamide]		EC50 (FLIPR assay, Table 1): < 500 nM
CC(C)(C)CC(=O)Nc1nc2ccc(F)cn2c1-c1cc(Cl)ccn1 [Compound 364, N-(3-(4-chloropyridin-2-yl)-6-fluoroimidazo[1,2-a]pyridin-2-yl)-3,3-dimethylbutanamide]		EC50 (FLIPR assay (Table 3)): 500 to 3000 nM
O=C(Cc1ccc(F)cc1)Nc1nc2cc(C(F)(F)F)ccn2c1-c1ccc(F)cc1F [Compound 122, N-(3-(2,4-difluorophenyl)-7-(trifluoromethyl)imidazo[1,2-a]pyridin-2-yl)-2-(4-fluorophenyl)acetamide]	500 to 3000	
O=C(Cc1ccccc1)Nc1nc2ccc(F)cn2c1-c1ccc(F)cc1F [Compound 115, N-(3-(2,4-difluorophenyl)-6-fluoroimidazo[1,2-a]pyridin-2-yl)-2-phenylacetamide]	500 to 3000	
CC(C)(C)CC(=O)Nc1nc2ccc(F)cn2c1-c1ccc(C#N)cc1 [Compound 177, N-(3-(4-cyanophenyl)-6-fluoroimidazo[1,2-a]pyridin-2-yl)-3,3-dimethylbutanamide]	500 to 3000	
CC(C)(C)Cc1c(NC(=O)C2CCC(F)(F)CC2)nc2ccc(C(F)(F)F)cn12 [Compound 73, 4,4-difluoro-N-(3-neopentyl-6-(trifluoromethyl)imidazo[1,2-a]pyridin-2-yl)cyclohexanecarboxamide]		EC50 (FLIPR assay, Table 1): < 500 nM
CC(C)(C)C(F)(F)C(=O)Nc1nc2ccc(F)cn2c1-c1ccc(C(F)(F)F)cc1 [Compound 202, 2,2-difluoro-N-(6-fluoro-3-(4-(trifluoromethyl)phenyl)imidazo[1,2-a]pyridin-2-yl)-3,3-dimethylbutanamide]	< 500	
CC(C)(C)Cc1c(NC(=O)C2CCC(F)(F)CC2)nc2ccccn12 [Compound 87, 4,4-difluoro-N-(3-neopentylimidazo[1,2-a]pyridin-2-yl)cyclohexanecarboxamide]		EC50 (FLIPR assay, Table 1): 500 to 3000 nM
CC(C)(C)CCC(=O)Nc1nc2ccc(F)cn2c1-c1cccc(C(F)(F)F)c1 [Compound 283, N-(6-fluoro-3-(3-(trifluoromethyl)phenyl)imidazo[1,2-a]pyridin-2-yl)-4,4-dimethylpentanamide]	< 500	
O=C(CC1CCCC1)Nc1nc2ccccn2c1-c1ccc(C(F)(F)F)cc1 [Compound 224, 2-cyclopentyl-N-(3-(4-(trifluoromethyl)phenyl)imidazo[1,2-a]pyridin-2-yl)acetamide]	< 500	

Now from value to compound, other results behind:

EC50 (FLIPR assay, Table 2) [nM]	Compound	other results
< 500	CC(C)(C)CC(=O)Nc1nc2ccccn2c1-c1cccc(OC(F)(F)F)c1 [Compound 342, 3,3-dimethyl-N-(3-(3-(trifluoromethoxy)phenyl)imidazo[1,2-a]pyridin-2-yl)butanamide]	
< 500	O=C(Cc1ccc(F)cc1)Nc1nc2ccc(F)cn2c1-c1ccc(OC(F)(F)F)c(F)c1 [Compound 296, N-(6-fluoro-3-(3-fluoro-4-(trifluoromethoxy)phenyl)imidazo[1,2-a]pyridin-2-yl)-2-(4-fluorophenyl)acetamide]	
< 500	Cc1ccc2nc(NC(=O)Cc3ccc(F)cc3)c(-c3cccc(C(F)(F)F)c3)n2n1 [Compound 309, 2-(4-fluorophenyl)-N-(6-methyl-3-(3-(trifluoromethyl)phenyl)imidazo[1,2-b]pyridazin-2-yl)acetamide]	
< 500	CC(C)C(C)C(=O)Nc1nc2ccc(F)cn2c1-c1cccc(Cl)c1 (centres unmarked) [Compound 314, N-(3-(3-chlorophenyl)-6-fluoroimidazo[1,2-a]pyridin-2-yl)-2,3-dimethylbutanamide]	
< 500	Cc1ccc2nc(NC(=O)Cc3ccc(F)cc3)c(-c3cccc(OC(F)(F)F)c3)n2n1 [Compound 306, 2-(4-fluorophenyl)-N-(6-methyl-3-(3-(trifluoromethoxy)phenyl)imidazo[1,2-b]pyridazin-2-yl)acetamide]	
500 to 3000	CC(C)(C)[C@H](O)C(=O)Nc1nc2ccc(F)cn2c1-c1ccc(C(F)(F)F)cc1 [Compound 341, (S)—N-(6-fluoro-3-(4-(trifluoromethyl)phenyl)imidazo[1,2-a]pyridin-2-yl)-2-hydroxy-3,3-dimethylbutanamide]	
